Results published in patent US7101878B1 (Agouron Pharmaceuticals, Inc., priority 1998, dated 2006).

Molecular target: T1, mouse GnRH receptor (Mus musculus, UniProt Q01776)
T1 construct: expressed in transfected cells; host or cells: 293 cells
T1 sequence (Q01776 1-327): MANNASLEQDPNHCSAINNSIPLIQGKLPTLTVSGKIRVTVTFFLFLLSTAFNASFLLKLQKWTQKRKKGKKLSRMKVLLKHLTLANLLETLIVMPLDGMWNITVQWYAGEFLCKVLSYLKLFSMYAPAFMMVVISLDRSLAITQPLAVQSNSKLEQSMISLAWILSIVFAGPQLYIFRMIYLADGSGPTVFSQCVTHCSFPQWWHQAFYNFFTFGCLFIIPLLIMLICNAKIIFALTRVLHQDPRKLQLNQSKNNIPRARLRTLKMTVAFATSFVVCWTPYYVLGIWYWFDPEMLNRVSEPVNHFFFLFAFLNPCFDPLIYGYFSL
Assay: Radioligand binding, 125I-GnRH-A, 293 cells expressing mouse GnRH receptors
Details: 10 uM
In short: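 Bound label captured on 0.1% polyethyleneimine-treated GF/C filters, washed three times with PBS, counted. IC50 derived; identical set-up for every species.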

| % Inhib. @ 10 uM mGnRH [%] | Structure (SMILES) |
| --- | --- |
| 103 | Cc1cc2c(cc1Cc1ccc(C(=O)NC(CO)C(C)C)o1)C(C)(C)CCC2(C)C (centres unmarked) [drawing 1479] |

Same assay, conditions: 10 uM; read-out: % Inhib. @ 10 uM mGnRH

| Structure (SMILES) | inhibition at 10 µM [%] |
| --- | --- |
| CCN(CC)CCCN(C)C(=O)c1ccc(Cc2cc3c(cc2C)C(C)(C)CCC3(C)C)o1 | 92 |
| CCCN(CCC#N)C(=O)c1ccc(Cc2cc3c(cc2C)C(C)(C)CCC3(C)C)o1 | 94 |
| Cc1cc2c(cc1Cc1ccc(C(=O)N3CCC(O)(c4ccccc4)CC3)o1)C(C)(C)CCC2(C)C | 72 |
| Cc1cc2c(cc1Cc1ccc(C(=O)NC(C(C)C)C(C)C)o1)C(C)(C)CCC2(C)C | 58 |
| Cc1cc2c(cc1Cc1ccc(C(=O)N(C)CCC(O)c3ccccc3)o1)C(C)(C)CCC2(C)C (centres unmarked) | 99 |
| Cc1cc2c(cc1Cc1ccc(C(=O)N3CCC[C@H]3C(N)=O)o1)C(C)(C)CCC2(C)C | 74 |
| Cc1cc2c(cc1Cc1ccc(C(=O)N3CCCCC3CCO)o1)C(C)(C)CCC2(C)C (centres unmarked) | 100 |
| Cc1cc2c(cc1Cc1ccc(C(=O)N(Cc3ccccc3Cl)CC(c3ccccc3)c3ccccc3)o1)C(C)(C)CCC2(C)C | 8 |
| Cc1cc2c(cc1Cc1ccc(C(=O)N(C)CC(O)c3ccc(O)cc3)o1)C(C)(C)CCC2(C)C (centres unmarked) | 34 |
| CCC1CCC(C)N(C(=O)c2ccc(Cc3cc4c(cc3C)C(C)(C)CCC4(C)C)o2)C1 (centres unmarked) | 95 |
| COc1ccc(CCN(CC(C)C)C(=O)c2ccc(Cc3cc4c(cc3C)C(C)(C)CCC4(C)C)o2)cc1OC | 90 |
| Cc1cc2c(cc1Cc1ccc(C(=O)N3CCN(C(=O)C(c4ccccc4)c4ccccc4)CC3)o1)C(C)(C)CCC2(C)C | 36 |
| Cc1cc2c(cc1Cc1ccc(C(=O)N3CCC[C@@H]3C(=O)NC(c3ccccc3)c3ccccc3)o1)C(C)(C)CCC2(C)C | 58 |
| Cc1cc2c(cc1Cc1ccc(C(=O)N(C)[C@@H](C)Cc3ccccc3)o1)C(C)(C)CCC2(C)C | 59 |
| C=CCN(C(=O)c1ccc(Cc2cc3c(cc2C)C(C)(C)CCC3(C)C)o1)C1CCCCC1 | 65 |
| COc1ccccc1CN(CCC(c1ccccc1)c1ccccc1)C(=O)c1ccc(Cc2cc3c(cc2C)C(C)(C)CCC3(C)C)o1 | 21 |
| Cc1cc2c(cc1Cc1ccc(C(=O)N(C)C3CCCCC3)o1)C(C)(C)CCC2(C)C | 97 |

Other lines, results leading:

| inhibition at 10 µM [%] | Structure (SMILES) |
| --- | --- |
| 104 | Cc1cc2c(cc1Cc1ccc(C(=O)N(CCN3CCCCC3)Cc3ccccc3)o1)C(C)(C)CCC2(C)C [drawing 1460] |
| 89 | Cc1cc2c(cc1Cc1ccc(C(=O)N(Cc3cccnc3)Cc3ccco3)o1)C(C)(C)CCC2(C)C [drawing 1535] |
| 43 | Cc1cc2c(cc1Cc1ccc(C(=O)N(CCC(c3ccccc3)c3ccccc3)Cc3ccco3)o1)C(C)(C)CCC2(C)C [drawing 1552] |
| 100 | Cc1cc2c(cc1Cc1ccc(C(=O)N(CCN3CCCC3)Cc3ccccc3)o1)C(C)(C)CCC2(C)C [drawing 1462] |
| 84 | Cc1cc2c(cc1Cc1ccc(C(=O)NCCC3=CCCCC3)o1)C(C)(C)CCC2(C)C [drawing 1448] |
| 100 | CCCN(CCc1ccccn1)C(=O)c1ccc(Cc2cc3c(cc2C)C(C)(C)CCC3(C)C)o1 [drawing 1297] |
| 73 | Cc1cc2c(cc1Cc1ccc(C(=O)NCCc3ccccc3)o1)C(C)(C)CCC2(C)C [drawing 1452] |
| 90 | Cc1cc2c(cc1Cc1ccc(C(=O)N3CC(C)CC(C)C3)o1)C(C)(C)CCC2(C)C (centres unmarked) [drawing 1446] |
| 87 | Cc1cc2c(cc1Cc1ccc(C(=O)NC(CO)C(C)C)o1)C(C)(C)CCC2(C)C (centres unmarked) [drawing 1478] |
| 99 | CCOC(=O)CCNC(=O)c1ccc(Cc2cc3c(cc2C)C(C)(C)CCC3(C)C)o1 [drawing 1592] |
| 90 | Cc1cc2c(cc1Cc1ccc(C(=O)NC3CCS(=O)(=O)C3)o1)C(C)(C)CCC2(C)C (centres unmarked) [drawing 1508] |
| 62 | CCOC(=O)CN(Cc1ccccc1)C(=O)c1ccc(Cc2cc3c(cc2C)C(C)(C)CCC3(C)C)o1 [drawing 1494] |
| 82 | Cc1cc2c(cc1Cc1ccc(C(=O)NC(C)CO)o1)C(C)(C)CCC2(C)C (centres unmarked) [drawing 1241] |
| 47 | Cc1cc2c(cc1Cc1ccc(C(=O)NCCc3ccc(Br)cc3)o1)C(C)(C)CCC2(C)C [drawing 1371] |
| 103 | COC(CNC(=O)c1ccc(Cc2cc3c(cc2C)C(C)(C)CCC3(C)C)o1)OC [drawing 1505] |
| 47 | Cc1cc2c(cc1Cc1ccc(C(=O)NCc3cccc(CNC(=O)C(Cc4ccccc4)c4ccccc4)c3)o1)C(C)(C)CCC2(C)C (centres unmarked) [drawing 1571] |
| 101 | Cc1cc2c(cc1Cc1ccc(C(=O)NCCSCCO)o1)C(C)(C)CCC2(C)C [drawing 1498] |
| 84 | Cc1cc2c(cc1Cc1ccc(C(=O)NCC(C)(C)CO)o1)C(C)(C)CCC2(C)C [drawing 1438] |

Same assay, conditions: 1 h, substrate remaining; 10 uM compound; closer to zero = closer to 100% inhibition; read-out: S%R 10 uM mGnRHR

| Structure (SMILES) | remaining activity at 10 µM [%] |
| --- | --- |
| Cc1cc2c(cc1Cc1ccc(C(=O)NCCC3=CCCCC3)o1)C(C)(C)CCC2(C)C [Compound 594] | 16 |
| Cc1cc2c(cc1Cc1ccc(C(=O)N(C)CCC3OCCO3)o1)C(C)(C)CCC2(C)C [Compound 619] | 5 |
| Cc1cc2c(cc1Cc1ccc(C(=O)N(CCC(c3ccccc3)c3ccccc3)Cc3ccco3)o1)C(C)(C)CCC2(C)C [Compound 630] | 58 |
| Cc1cc2c(cc1Cc1ccc(C(=O)NCCc3cccnc3)o1)C(C)(C)CCC2(C)C [Compound 457] | -3 |
| Cc1cc2c(cc1Cc1ccc(C(=O)NC3(CO)CCCC3)o1)C(C)(C)CCC2(C)C [Compound 550] | 3 |
| Cc1cc2c(cc1Cc1ccc(C(=O)N(CC(C)C)CC(C)C)o1)C(C)(C)CCC2(C)C [Compound 584] | 15 |
| Cc1cc2c(cc1Cc1ccc(C(=O)N(CCCN3CCN(C)CC3)Cc3cc(C)n(-c4cccc(C(F)(F)F)c4)c3C)o1)C(C)(C)CCC2(C)C [Compound 567] | -1 |
| Cc1cc2c(cc1Cc1ccc(C(=O)NC(C)(CO)CO)o1)C(C)(C)CCC2(C)C [Compound 564] | 45 |
| Cc1cc2c(cc1Cc1ccc(C(=O)NCCc3c[nH]cn3)o1)C(C)(C)CCC2(C)C [Compound 513] | 9 |
| Cc1cc2c(cc1Cc1ccc(C(=O)NCCc3ccncc3)o1)C(C)(C)CCC2(C)C [Compound 485] | -5 |
| Cc1cc2c(cc1Cc1ccc(C(=O)NC(C)C3CCCCC3)o1)C(C)(C)CCC2(C)C (centres unmarked) [Compound 546] | 29 |
| COc1ccccc1N1CCN(C(=O)c2ccc(Cc3cc4c(cc3C)C(C)(C)CCC4(C)C)o2)CC1 [Compound 554] | 27 |
| COc1cc(CCNC(=O)c2ccc(Cc3cc4c(cc3C)C(C)(C)CCC4(C)C)o2)cc(OC)c1O [Compound 506] | 3 |
| CCN(CC)CCNC(=O)c1ccc(Cc2cc3c(cc2C)C(C)(C)CCC3(C)C)o1 [Compound 615] | 7 |
| CC(=O)NCCNC(=O)c1ccc(Cc2cc3c(cc2C)C(C)(C)CCC3(C)C)o1 [Compound 476] | 20 |
| Cc1cc2c(cc1Cc1ccc(C(=O)NCCCCCCO)o1)C(C)(C)CCC2(C)C [Compound 617] | -2 |
| Cc1cc2c(cc1Cc1ccc(C(=O)NCCc3ccc(Oc4ccccc4)cc3)o1)C(C)(C)CCC2(C)C [Compound 622] | 43 |
| Cc1cc2c(cc1Cc1ccc(C(=O)NCCc3ccccc3)o1)C(C)(C)CCC2(C)C [Compound 545] | 28 |
| Cc1ccc(N2CCN(C(=O)c3ccc(Cc4cc5c(cc4C)C(C)(C)CCC5(C)C)o3)CC2)c(C)c1 [Compound 565] | 48 |
| Cc1cc2c(cc1Cc1ccc(C(=O)N3CCN(c4cccc(NCC5CCCO5)n4)CC3)o1)C(C)(C)CCC2(C)C (centres unmarked) [Compound 480] | -2 |
| Cc1cc2c(cc1Cc1ccc(C(=O)N(Cc3cccnc3)Cc3cccnc3)o1)C(C)(C)CCC2(C)C [Compound 610] | 0 |
| Cc1cc2c(cc1Cc1ccc(C(=O)NCCCCCCN(C)C)o1)C(C)(C)CCC2(C)C [Compound 627] | -6 |
| Cc1cc2c(cc1Cc1ccc(C(=O)NCC(F)(F)F)o1)C(C)(C)CCC2(C)C [Compound 510] | 23 |
| Cc1cc2c(cc1Cc1ccc(C(=O)N(Cc3cccn3C)C3CCN(Cc4ccccc4)C3)o1)C(C)(C)CCC2(C)C (centres unmarked) [Compound 623] | 2 |
| Cc1cc2c(cc1Cc1ccc(C(=O)N(Cc3ccoc3)C3CCN(Cc4ccccc4)C3)o1)C(C)(C)CCC2(C)C (centres unmarked) [Compound 618] | 9 |

Next, values leading:

| remaining activity at 10 µM [%] | Structure (SMILES) |
| --- | --- |
| 30 | Cc1cc2c(cc1Cc1ccc(C(=O)N(CCCN(C)C)CCCN(C)C)o1)C(C)(C)CCC2(C)C [Compound 700] |
| 52 | Cc1cc2c(cc1Cc1ccc(C(=O)N3CCC(O)(c4ccc(Br)cc4)CC3)o1)C(C)(C)CCC2(C)C [Compound 656] |
| 41 | Cc1cc2c(cc1Cc1ccc(C(=O)N3CCC(NC(=O)C(F)(F)F)C3)o1)C(C)(C)CCC2(C)C (centres unmarked) [Compound 661] |
| 39 | Cc1cc2c(cc1Cc1ccc(C(=O)N(CCc3ccccc3)Cc3ccoc3)o1)C(C)(C)CCC2(C)C [Compound 667] |
| 35 | CCCCN(C(=O)c1ccc(Cc2cc3c(cc2C)C(C)(C)CCC3(C)C)o1)C(C)c1ccccc1 (centres unmarked) [Compound 695] |
| 2 | CSCCCNC(=O)c1ccc(Cc2cc3c(cc2C)C(C)(C)CCC3(C)C)o1 [Compound 640] |
| 21 | Cc1cc2c(cc1Cc1ccc(C(=O)NCCc3ccc(F)cc3)o1)C(C)(C)CCC2(C)C [Compound 632] |
